Source: US8030493B2, “Monovalent and divalent salts of N-(5-hydroxynicotinoil) -L-glutamic acid exhibiting psychotropic (antidepressant and anxiolytic), neuroprotective, geroprotective and cerebroprotective action” (Obschestvo S Ogranichennoy Otvetstvennostyu “Natsionalnaya …, priority 2006, dated 2011)

Columns and labels:
mice SAM P 10 [1] = test: Anxiolytic activity: elevated criss-cross labyrinth in mice SAM P10; assay type: in vivo; conditions: 5 minutes observation
Excerpt: (Takeda T. et al. Senescence-Accelerated Mouse (SAM): A novel murine model of accelerated senescence. J. Amer. Geriatr. Soc. 1991, v. 39, p. 911-919). The animals belonging to this line are characterized by genetically determined depression and impairment of learning capacity, these symptoms intensively aggravate since 6 months of age (accelerated senescence) (Miyamoto M., Characteristics of age-related behavioral changes in senescence-accelerated mouse SAMP8 and SAMP10. Exp. Gerontolol. 1997, v. 32, p. 139-148; Shimada A. et al. Age-related deterioration in conditional avoidance task in the SAM-P/10 mouse, an animal model of spontaneous brain atrophy. Brain Res., 1993, v. 608, p. 266-272). Assessment of anxiety level of the mice was carried out under conditions of “elevated criss-cross labyrinth” (ECCL) method (Pellow S. et al. Validation of open:closed arm entries in elevated plus-maze as a measure of anxiety in the rat. Neurosci Meth J. 1985, No 14, p. 149-167; Voronina T. A. et al. “Textbook for Experimental (Preclinical Study) of novel pharmacological compounds”. Moscow, Medicina. 2005, p. 253-263). Labyrinth comprises crossed bands 5×45 cm, with two opposed compartments having vertical walls 30 cm height (closed, dark arms), and two other compartments are open, light arms. Labyrinth is situated 30 cm above the floor. Central platform […] is located at the cross of the planes. The mice were placed on the central platform with their tails directed to light arm. Time spent by the animals in open and closed arms, and the number of entering light and dark arms was registered. Total observation period comprised 5 minutes for each animal. Time spent in the open arms of the unit was considered as the measure of anxiolytic effect.

[2] = test system: white nondescript male mice; test: in vivo; conditions: white nondescript (outbred), mouse, ip, 2 days
Procedure: The study of acute daily toxicity of Compound I was carried out on white nondescript male mice with body weight 25-28 g, which lived in habitual conditions in vivarium and received feed and water ad libitum. Single dose of Compound I was administered intraperitoneally. The animals were under observation for 2 days after the dosing. The dose levels of Compound I used in the toxicity study were as follows: 800 mg/kg, 1000 mg/kg, 1200 mg/kg, 1500 mg/kg, 1600 mg/kg. Compound I was dissolved in distilled water and administered in 0, 1 ml per 10 g of the body weight of the animal when the doses 800 mg/kg and 1000 mg/kg, and in 0.2 ml per 10 g of the body weight when the doses 1200 mg/kg, 1500 mg/kg, 1600 mg/kg were used. Control animals received distilled water in the volume 0.2 ml per 10 g of the body weight.
Each dose group comprised 10 animals.

[3] = test system: rats with induced ischemia; test: Passive avoidance response in animals with induced ischemia; assay type: in vivo; conditions: 24 hours after learning, 180 seconds test
Excerpt: In separate series of the experiments the animals learned in the test of passive avoidance response (PAR), which was formed in apparatus supplied by Lafayette Instrument Co. (USA) comprising brightly illuminated hanging platform connected to dark chamber with electrified floor. In the course of learning the rat entered dark chamber due to congenital hole reflex, and received pain electric stimulus.
These effects of nooglutyl and Compound Ia were significant compared with control at p<0.05.

mice SAM P 10 [4] = test: Antidepressant activity: forced swimming in mice SAM; assay type: in vivo; conditions: first 6 minutes of forced swimming
Procedure: Exp. Gerontolol. 1997, […]. et al. Age-related deterioration in conditional avoidance task in the SAM-P/10 mouse, an animal model of spontaneous brain atrophy. Brain Res., 1993, v. 608, p. 266-272). To assess depressive condition the method of forced swimming was used (Porsolt R. D. et al., Behavioral despair in rats: a new model sensitive to antidepressant treatment. Europ. J. […] The mice were placed into cylinder 10 cm in diameter and 25 cm height. Cylinder was filled with water by 1⁄3 (27° C.). After unsuccessful attempts to get out of the water the animals have typical immovable posture, which is regarded as manifestation of “despair”.

Row | SMILES | Number of entries the closed arms (mice SAM P 10 [1]; 5 mg/kg) | Number of entries the opened arms (mice SAM P 10 [1]; 5 mg/kg) | Time spent in the closed arms (c) (mice SAM P 10 [1]; 5 mg/kg) | Time spent in the opened arms (c) (mice SAM P 10 [1]; 5 mg/kg) | Number of entries the closed arms (mice SAM P 10 [1]; 10 mg/kg) | Number of entries the opened arms (mice SAM P 10 [1]; 10 mg/kg) | Time spent in the closed arms (c) (mice SAM P 10 [1]; 10 mg/kg) | Time spent in the opened arms (c) (mice SAM P 10 [1]; 10 mg/kg) | Number of entries the closed arms (mice SAM P 10 [1]; 20 mg/kg) | Number of entries the opened arms (mice SAM P 10 [1]; 20 mg/kg) | Time spent in the closed arms (c) (mice SAM P 10 [1]; 20 mg/kg) | Time spent in the opened arms (c) (mice SAM P 10 [1]; 20 mg/kg) | LD16 [2] | LD84 [2] | Latent period of entry to dark dangerous chamber [3] | Period of active behaviour (mice SAM P 10 [4]; 10 mg/kg) | Period of active behaviour (mice SAM P 10 [4]; 20 mg/kg)
1 | O=C([O-])CC[C@H](NC(=O)c1cncc(O)c1)C(=O)[O-].[Ca+2] [Compound I, Calcium N-(5-hydroxynicotinoyl)-L-glutamate] | 15.6 ± 2.1 | 5.7 ± 0.6 | 247.0 ± 6.4 c | 21.1 ± 4.6 c | 20.51 ± 3.1 | 7.7 ± 0.2 | 262.0 ± 22.1 c | 23.9 ± 5.8 c | 19.3 ± 2.5 | 13.0 ± 1.1 | 234.8 ± 8.7 c | 28.4 ± 6.2 c | 900 mg/kg | 1450 mg/kg | 62.3 ± 7.2 s | 190.00 ± 9.50 s | 225.00 ± 10.97 s
2 | O=C(O)CC[C@H](NC(=O)c1cncc(O)c1)C(=O)O [Nooglutyl, N-(5-hydroxynicotinoyl)-L-glutamic acid, reference compound] |  |  |  |  |  |  |  |  |  |  |  |  |  |  | 56.2 ± 8.3 s |  | 
